Laboratory results published in ChEMBL document CHEMBL1150921, “Organochlorine compounds from a terrestrial higher plant: structures and origin of chlorinated orcinol derivatives from diseased bulbs of Lilium maximowiczii” (1998).
Calls of active or inactive are those of the source. The calls are words filed in the database; no cut-off is given here.

Experiments:
[1] = tested on: Bipolaris leersiae; assay: Antifungal activity against Bipolaris leersiae assessed as inhibition of conidial germination at 500 ppm after 24 hrs by microscopy; type: functional
[2] = tested on: Bipolaris leersiae; assay: Antifungal activity against Bipolaris leersiae assessed as inhibition of conidial germination at 300 ppm after 24 hrs by microscopy; type: functional
[3] = tested on: Bipolaris leersiae; assay: Antifungal activity against Bipolaris leersiae assessed as inhibition of conidial germination at 100 ppm after 24 hrs by microscopy; type: functional
[4] = tested on: Bipolaris leersiae; assay: Antifungal activity against Bipolaris leersiae assessed as inhibition of conidial germination at 1000 ppm after 24 hrs by microscopy; type: functional, organism-based
[5] = tested on: Bipolaris leersiae; assay: Antifungal activity against Bipolaris leersiae assessed as inhibition of conidial germination at 50 ppm after 24 hrs by microscopy; type: functional, organism-based
[6] = tested on: Bipolaris leersiae; assay: Antifungal activity against Bipolaris leersiae assessed as inhibition of conidial germination at 10 ppm after 24 hrs by microscopy; type: functional

Structure (SMILES)	Activity [1]	Activity [2]	inhibition at 100 ppm [3] [%]	Activity [4]	inhibition at 500 ppm [1] [%]	inhibition at 300 ppm [2] [%]	Activity [3]	Activity [5]	inhibition at 10 ppm [6] [%]	Activity [6]
Cc1cc(O)c(Cl)c(O)c1	Active	Active	80	–	–	–	–	–	–	–
Cc1cc(O)cc(O)c1 [ORCINOL]	–	–	30	Active	80	30	–	–	–	–
Cc1cc(O)cc(O)c1Cl	Active	Active	80	–	–	–	–	–	–	–
COc1cc(OC)c(Cl)c(C)c1Cl	–	–	–	–	–	–	inactive	–	–	–
COc1c(O)c(C)c(Cl)c(OC)c1Cl	Active	Active	–	–	–	–	Active	Active	–	–
COc1c(O)c(C)c(Cl)c(O)c1Cl	Active	Active	–	–	–	–	Active	Active	80	–
COc1c(Cl)c(C)c(Cl)c(O)c1Cl	Active	Active	–	–	–	–	Active	Active	–	Active
